Measurements reported in publication PMC10378394 (Current Issues in Molecular Biology, 2023).

Key:
[1] = molecular target: BRAF (Homo sapiens, UniProt P15056); assay: Eurofins kinase assay
[2] = molecular target: CSK(h) (Homo sapiens, UniProt P41240); assay: Eurofins kinase assay
[3] = molecular target: NEK2(h) (Homo sapiens, UniProt P51955); assay: Eurofins kinase assay
[4] = molecular target: CDK2/cyclinA(h) (Homo sapiens, UniProt P24941); assay: Eurofins kinase assay
[5] = molecular target: PKCζ(h) (Homo sapiens, UniProt Q05513); assay: Eurofins kinase assay
Chain of PKCζ(h) (Q05513 whole entry): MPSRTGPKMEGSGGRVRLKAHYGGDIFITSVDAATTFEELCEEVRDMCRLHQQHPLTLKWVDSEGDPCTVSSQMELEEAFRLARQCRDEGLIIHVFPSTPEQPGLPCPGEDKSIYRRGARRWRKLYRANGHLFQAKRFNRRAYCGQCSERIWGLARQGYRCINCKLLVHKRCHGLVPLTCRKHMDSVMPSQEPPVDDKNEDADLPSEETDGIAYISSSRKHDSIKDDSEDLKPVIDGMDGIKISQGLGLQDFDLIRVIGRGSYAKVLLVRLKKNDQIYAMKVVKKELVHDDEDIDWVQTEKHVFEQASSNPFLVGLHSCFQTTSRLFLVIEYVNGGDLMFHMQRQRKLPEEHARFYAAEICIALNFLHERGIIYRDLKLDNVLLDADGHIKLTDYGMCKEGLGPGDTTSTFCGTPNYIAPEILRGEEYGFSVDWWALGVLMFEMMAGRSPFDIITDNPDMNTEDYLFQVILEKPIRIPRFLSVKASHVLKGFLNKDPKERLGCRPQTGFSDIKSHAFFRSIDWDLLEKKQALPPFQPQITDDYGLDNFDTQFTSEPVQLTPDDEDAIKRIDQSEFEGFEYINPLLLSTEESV

[6] = Single oral dose, central nervous system; type: in vivo, ICR mice; conditions: single oral dose 500 mg/kg
[7] = Tolerability in mouse xenograft experiments; type: in vivo
Method: Human-derived colorectal cancer cell lines, LS513, HCT-116, and HT29, were subcutaneously transplanted into 6-week-old female BALB/c nude mice to establish tumor models. Additionally, the mouse cancer cell line MC38 was subcutaneously transplanted into 6-week-old female and C57BL/6 mice to induce tumor formation. […]. The treatments were administered orally once daily for 2 weeks based on the growth rate observed in the vehicle group. Tumor volume was evaluated three times a week using the formula Tumor volume (TV) = (tumor short diameter ^2 × tumor long diameter)/2. The body weight of the mice was measured three times a week to assess potential toxicity in vivo. […]

[8] = molecular target: PKBβ(h) (Homo sapiens, UniProt P31751); assay: Eurofins kinase assay
Chain of PKBβ(h) (P31751 whole entry): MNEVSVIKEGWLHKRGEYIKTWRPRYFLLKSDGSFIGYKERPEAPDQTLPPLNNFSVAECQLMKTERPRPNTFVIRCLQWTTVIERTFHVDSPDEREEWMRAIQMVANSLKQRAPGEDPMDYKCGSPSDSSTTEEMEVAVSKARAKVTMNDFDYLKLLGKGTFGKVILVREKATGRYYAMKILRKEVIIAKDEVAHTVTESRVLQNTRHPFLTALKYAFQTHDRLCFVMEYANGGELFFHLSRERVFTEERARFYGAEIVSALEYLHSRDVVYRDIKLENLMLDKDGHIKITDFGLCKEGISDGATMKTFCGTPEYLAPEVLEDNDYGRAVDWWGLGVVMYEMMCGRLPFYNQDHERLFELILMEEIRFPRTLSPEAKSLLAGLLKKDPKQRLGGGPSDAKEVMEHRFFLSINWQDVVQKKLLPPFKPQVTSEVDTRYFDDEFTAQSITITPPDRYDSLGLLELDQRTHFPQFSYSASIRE

[9] = molecular target: Flt3(h) (Homo sapiens, UniProt P36888); assay: Eurofins kinase assay
[10] = molecular target: PKCγ(h) (Homo sapiens, UniProt P05129); assay: Eurofins kinase assay
[11] = molecular target: PKA(h) (Homo sapiens, UniProt P17612); assay: Eurofins kinase assay
[12] = molecular target: FGFR3(h) (Homo sapiens, UniProt P22607); assay: Eurofins kinase assay
Chain of FGFR3(h) (P22607 23-806): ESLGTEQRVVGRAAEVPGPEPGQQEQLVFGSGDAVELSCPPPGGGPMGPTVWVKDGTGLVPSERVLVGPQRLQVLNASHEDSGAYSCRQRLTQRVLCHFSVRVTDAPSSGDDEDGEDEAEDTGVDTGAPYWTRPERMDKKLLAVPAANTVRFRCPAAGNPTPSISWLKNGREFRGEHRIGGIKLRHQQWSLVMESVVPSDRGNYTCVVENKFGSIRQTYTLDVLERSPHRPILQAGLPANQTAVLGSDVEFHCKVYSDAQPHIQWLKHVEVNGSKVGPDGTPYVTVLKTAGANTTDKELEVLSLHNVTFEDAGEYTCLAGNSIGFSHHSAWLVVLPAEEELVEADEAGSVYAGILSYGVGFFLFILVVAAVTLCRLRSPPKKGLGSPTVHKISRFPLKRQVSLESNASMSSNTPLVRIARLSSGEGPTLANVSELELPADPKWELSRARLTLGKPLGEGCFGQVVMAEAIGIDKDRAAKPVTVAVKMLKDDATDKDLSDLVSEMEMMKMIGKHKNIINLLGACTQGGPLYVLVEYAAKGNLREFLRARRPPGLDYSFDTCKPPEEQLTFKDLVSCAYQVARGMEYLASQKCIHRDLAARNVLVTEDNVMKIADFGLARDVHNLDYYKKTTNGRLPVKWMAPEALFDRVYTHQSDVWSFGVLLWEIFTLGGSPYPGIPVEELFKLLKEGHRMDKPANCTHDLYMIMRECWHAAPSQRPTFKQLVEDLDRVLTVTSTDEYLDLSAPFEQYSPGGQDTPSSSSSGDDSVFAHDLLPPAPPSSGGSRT

[13] = molecular target: BRAF (V600E) (Homo sapiens, UniProt P15056, V600E); assay: Eurofins kinase assay
Chain of BRAF (V600E) (P15056 whole entry V600E): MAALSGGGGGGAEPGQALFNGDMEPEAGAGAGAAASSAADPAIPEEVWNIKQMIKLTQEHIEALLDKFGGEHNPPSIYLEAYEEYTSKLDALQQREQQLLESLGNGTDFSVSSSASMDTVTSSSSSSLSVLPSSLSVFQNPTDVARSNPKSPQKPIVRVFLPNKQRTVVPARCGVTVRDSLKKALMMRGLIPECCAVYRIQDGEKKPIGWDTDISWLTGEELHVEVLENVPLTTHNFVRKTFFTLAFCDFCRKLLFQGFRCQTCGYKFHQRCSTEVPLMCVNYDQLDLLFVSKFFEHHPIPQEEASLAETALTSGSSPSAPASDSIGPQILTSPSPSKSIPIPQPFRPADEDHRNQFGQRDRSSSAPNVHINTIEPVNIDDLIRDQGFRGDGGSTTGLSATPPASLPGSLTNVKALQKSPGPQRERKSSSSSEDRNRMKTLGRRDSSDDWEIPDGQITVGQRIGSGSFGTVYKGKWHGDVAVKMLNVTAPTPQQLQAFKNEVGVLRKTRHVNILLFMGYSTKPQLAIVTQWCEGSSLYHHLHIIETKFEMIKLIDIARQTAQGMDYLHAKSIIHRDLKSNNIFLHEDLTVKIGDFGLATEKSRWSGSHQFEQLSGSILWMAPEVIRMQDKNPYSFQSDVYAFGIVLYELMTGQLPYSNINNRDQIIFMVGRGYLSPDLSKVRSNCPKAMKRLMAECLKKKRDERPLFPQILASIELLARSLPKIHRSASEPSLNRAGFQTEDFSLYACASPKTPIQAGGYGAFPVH

[14] = molecular target: MST2(h) (Homo sapiens, UniProt Q13188); assay: Eurofins kinase assay
Chain of MST2(h) (Q13188 whole entry): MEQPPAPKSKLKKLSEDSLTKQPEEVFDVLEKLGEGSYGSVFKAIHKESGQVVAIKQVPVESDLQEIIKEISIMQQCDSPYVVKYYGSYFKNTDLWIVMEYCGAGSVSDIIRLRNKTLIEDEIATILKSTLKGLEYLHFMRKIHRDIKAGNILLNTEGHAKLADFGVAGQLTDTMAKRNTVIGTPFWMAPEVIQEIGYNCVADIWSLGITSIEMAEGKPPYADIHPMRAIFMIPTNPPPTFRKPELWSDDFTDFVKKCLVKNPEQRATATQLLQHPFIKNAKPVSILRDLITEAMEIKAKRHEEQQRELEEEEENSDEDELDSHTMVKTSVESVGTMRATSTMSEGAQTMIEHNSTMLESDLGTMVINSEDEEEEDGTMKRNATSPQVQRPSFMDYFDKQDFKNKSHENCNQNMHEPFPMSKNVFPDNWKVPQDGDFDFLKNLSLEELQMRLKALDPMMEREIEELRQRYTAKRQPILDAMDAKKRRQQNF

[15] = molecular target: PKBγ(h) (Homo sapiens, UniProt Q9Y243); assay: Eurofins kinase assay
[16] = system: HCT116 (KRAS G13D); assay: Cell proliferation assay (CellTiter-Glo); conditions: Homo sapiens, HCT-116, 72 h
Method: To assess cell viability, the CellTiter-Glo Luminescent Cell Viability Assay Reagent (Promega, Fitchburg, WI, USA) was added to each well. The assay measured ATP levels as an indicator of cell viability. All data points were normalized to the control samples treated with dimethyl sulfoxide when determining IC50 values. Statistical calculations and data analysis, including IC50 determination, were performed using GraphPad Prism software.

[17] = molecular target: PKCε(h) (Homo sapiens, UniProt Q02156); assay: Eurofins kinase assay
[18] = molecular target: PKD2(h) (Homo sapiens, UniProt Q9BZL6); assay: Eurofins kinase assay
[19] = molecular target: ATM(h) (Homo sapiens, UniProt Q13315); assay: Eurofins kinase assay
[20] = molecular target: PKCθ(h) (Homo sapiens, UniProt Q04759); assay: Eurofins kinase assay
Chain of PKCθ(h) (Q04759 whole entry): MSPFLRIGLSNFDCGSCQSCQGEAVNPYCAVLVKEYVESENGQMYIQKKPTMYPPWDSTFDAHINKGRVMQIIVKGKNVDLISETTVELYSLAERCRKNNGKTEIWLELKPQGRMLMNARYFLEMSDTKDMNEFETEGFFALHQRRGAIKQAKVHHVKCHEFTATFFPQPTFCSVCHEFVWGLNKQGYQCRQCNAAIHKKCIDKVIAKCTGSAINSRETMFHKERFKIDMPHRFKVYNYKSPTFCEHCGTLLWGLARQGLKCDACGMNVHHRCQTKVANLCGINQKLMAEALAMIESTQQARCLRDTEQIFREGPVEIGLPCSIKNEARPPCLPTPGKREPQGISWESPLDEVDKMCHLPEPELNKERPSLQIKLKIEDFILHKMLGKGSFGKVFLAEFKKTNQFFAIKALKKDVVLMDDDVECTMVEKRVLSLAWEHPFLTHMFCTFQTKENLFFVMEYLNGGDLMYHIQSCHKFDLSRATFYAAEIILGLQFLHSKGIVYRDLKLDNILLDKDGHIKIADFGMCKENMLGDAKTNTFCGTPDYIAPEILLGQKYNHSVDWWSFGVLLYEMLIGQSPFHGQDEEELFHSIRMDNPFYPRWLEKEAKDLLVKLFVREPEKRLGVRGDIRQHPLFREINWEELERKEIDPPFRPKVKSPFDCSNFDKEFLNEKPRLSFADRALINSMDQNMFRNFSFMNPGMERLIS

[21] = system: MC38 tumor tissue; assay: Immunofluorescence of tumor tissue; type: in vivo, mouse; conditions: MC38 tumors of treated mice
Method: Immunofluorescence staining was performed on tumor tissues. First, tumor tissue fixation was performed using 4% paraformaldehyde (Sigma-Aldrich, #HT5011). Next, heat-induced epitope retrieval was performed by incubating the tissue in 10 mM sodium citrate for 10 min. Subsequently, permeabilization was achieved by treating the tissue with 0.2% Triton X-100 (Sigma-Aldrich, #X100) for 5 min. To block nonspecific binding, the tissue was incubated in 5% skim milk for 40 min. Primary antibodies, including FOXP3 (eBioscience, San Diego, CA, USA, #11-5773-82), CD8 (eBioscience #53-0081-82), CD31 (Abcam, Cambridge, UK, #ab28364), F480 (Abcam #ab6640), CD163 (Abcam #ab182422), and CD206 (Abcam #ab64693), were used. The secondary antibodies used were FITC-conjugated AffiniPure F(ab’)2 fragment goat anti-rat IgG (H + L) (Jackson ImmunoResearch, West Grove, PA, USA, #112-096-003) and Cy3-conjugated AffiniPure F(ab’)2 fragment goat anti-rabbit IgG (H + L) (Jackson ImmunoResearch #111-166-003). The stained tissue was mounted using ProLong™ Gold Antifade Mountant with DAPI (Invitrogen, Waltham, MA, USA) #14-5773-82). Fluorescent images of the samples were captured using the Agilent BioTek Cytation 1 device. The images were analyzed using the Gen5 program (Version3, BioTek, Winooski, VT, USA) to extract relevant data and perform quantitative analysis.

Chain of NEK2(h) (P51955 whole entry): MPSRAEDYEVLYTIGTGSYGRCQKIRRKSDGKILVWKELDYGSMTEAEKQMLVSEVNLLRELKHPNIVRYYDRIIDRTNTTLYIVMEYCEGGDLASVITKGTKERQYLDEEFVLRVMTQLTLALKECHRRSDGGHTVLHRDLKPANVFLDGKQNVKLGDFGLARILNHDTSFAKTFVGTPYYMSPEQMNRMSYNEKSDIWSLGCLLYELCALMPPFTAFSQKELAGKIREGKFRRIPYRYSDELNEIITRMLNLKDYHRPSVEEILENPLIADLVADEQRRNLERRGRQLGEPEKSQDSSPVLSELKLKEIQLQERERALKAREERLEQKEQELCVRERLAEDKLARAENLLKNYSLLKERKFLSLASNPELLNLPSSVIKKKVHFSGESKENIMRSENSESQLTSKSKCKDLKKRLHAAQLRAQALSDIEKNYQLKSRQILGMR
Chain of BRAF (P15056 whole entry): as the sequence (P15056 whole entry V600E) above, with E600V counted along it

Molecule `O=C(Nc1cc(Nc2ncccc2-c2ncnc3[nH]cnc23)ccc1F)c1cc(C(F)(F)F)cc(C(F)(F)F)c1` [SJ-C1044, N-(5-(3-(9H-purin-6-yl)pyridin-2-ylamino)-2-fluorophenyl)-3,5-bis(trifluoromethyl)benzamide] has an inhibition at 10 µM [1] of 68%, an inhibition at 10 µM [2] of 3% and an inhibition at 10 µM [3] of -4%. For the same molecule, the inhibition at 10 µM [4] was -8%, the inhibition at 10 µM [5] was 1% and the “central nervous system changes” value [6] was “did not result in any abnormal changes”. The “toxicity and weight loss” value [7] was “no signs of toxicity or significant weight loss”, the inhibition at 10 µM [8] was 1% and the inhibition at 10 µM [9] was 3%. It also gave an inhibition at 10 µM [10] of 1%, an inhibition at 10 µM [11] of -2% and an inhibition at 10 µM [12] of 48%. It also gave an inhibition at 10 µM [13] of 80%, an inhibition at 10 µM [14] of 9% and an inhibition at 10 µM [15] of 2%. It also gave a GI50 [16] of 0.16 µM, an inhibition at 10 µM [17] of -5% and an inhibition at 10 µM [18] of 3%. For the same molecule, the inhibition at 10 µM [19] was 12%, the inhibition at 10 µM [20] was 5% and the “CD31 staining (angiogenesis)” value [21] was “reduced”. The “CD163+ or CD206+ staining (M2 macrophages)” value [21] was “significant decrease”, the “F4/80+ staining intensity (pan macrophage marker)” value [21] was “notably reduced” and the “infiltration of CD8+ T cells” value [21] was “increase”. The “population of FOXP3+ cells” value [21] was “reducing”.
